# Data as given in US10781182B2, “Compounds, process for obtaining the compounds, pharmaceutical composition, use of the compounds and method for treating psychiatric disorders and/or sleep disorders” (ACHÉ LABORATÓRIOS FARMACÊUTICOS S.A., priority 2016, dated 2020).
# Experiments:
# [1] = Permeability in Caco-2 cells; format: in vitro ADME; conditions: human, Caco-2, pH 6.5, 37° C.; for Papp A→B at 60 min: apical to basolateral, read-out: Permeability A-B (pH 6.5/7.4); for Papp B→A at 40 min: basolateral to apical, read-out: Permeability B-A (pH 6.5/7.4)
# Experimental: Permeability tests were performed using Caco-2 cells, a colorectal epithelial adenocarcinoma cell line. These cells resemble intestinal epithelial cells in some aspects, such as the formation of a polarized monolayer, a well-defined brush border on the apical surface, and intercellular junctions.
# The test is performed in both directions [apical to basolateral (A-B) and basolateral to apical (B-A)] through the cell monolayer, allowing an efflux ratio that provides an indicator as to whether a compound undergoes active efflux. Particle detection was performed with HPLC-MS/MS (mass spectrometry) according to the calculation of the peak area of the result. MS/MS was performed by combining two mass detectors in a single instrument.
# A-B permeability was performed at pH 6.5/7.4 with incubation time of 0 and 60 minutes at 37° C. and B-A permeability was performed at pH 6.5/7.4 with incubation time of 0 and 40 minutes at 37° C.
# [2] = Water solubility (shake-flask, PBS pH 7.4); format: physicochemical; conditions: aqueous buffer, thermodynamic from solid
# Experimental: In addition, chromatographic purity (%) was defined as the calculation of the main peak area relative to the calculation of the peak area integrate of the standard HPLC calibration chromatogram. A standard calibration chromatogram was then generated for each compound tested along with a UV/VIS spectrum with maximal labeled absorbance. The shake-flash technique was used with constant stirring during incubation to keep a uniform medium for 24 hours in PBS at pH 7.4.
# human hepatocytes = assay: Intrinsic clearance in cryopreserved human hepatocytes; format: in vitro ADME
# Experimental: (§1) Cryopreserved hepatocytes from humans, rats (Sprague-Dawley males) and from mice (CD-1 males) were used for incubation at different times (0, 0.5, 1, 1.5, 2 hours) at 37° C. followed by HPLC-MS/MS detection. The aim was to verify the clearance time of the test substance on hepatocytes. The experiment was performed on a 96-well plate and the cryopreserved hepatocytes were thawed and resuspended in Krebs-Heinslet buffer(pH 7.3). The reaction was started by adding each test compound to each cell suspension and performing the incubation at the times indicated above. The reaction was quenched with addition of acetonitrile in the wells and detection by HPLC-MS/MS (mass spectrometry). MS/MS is performed by combining two mass detectors into a single instrument.
# [3] = test system: rat hepatocytes (Sprague-Dawley males); assay: Intrinsic clearance in cryopreserved rat hepatocytes; format: in vitro ADME
# Experimental: as §1
# [4] = test system: mouse hepatocytes (CD-1 males); assay: Intrinsic clearance in cryopreserved mouse hepatocytes; format: in vitro ADME
# Experimental: as §1
# CYP2B6 = CYP2B6 (Homo sapiens (Human), UniProt P20813); assay: CYP inhibition, fluorogenic substrate; format: in vitro ADME; set-up: dose or concentration left out as unconfirmed; conditions: recombinant CYP2B6, pH 7.4
# Description: (§2) The CYP inhibition test used fluorogenic substrates specific to each CYP to check for inhibition thereof by detection of the expected metabolite using a fluorimetric method. Recombinant CYPs (CYP2B6, CYP2C8, […], CYP2C19, CYP2D6, CYP3A4) from specific humans for each cytochrome family, subfamily and polypeptide were used. The following were used as substrates: CEC (3-Cyano-7-Ethoxycoumarin) which forms as metabolite CHC (3-Cyano-7-Hydroxycoumarin); EFC (7-Ethoxy-4-trifluoromethyl coumarin), forming the metabolite HFC (7-Hydroxytri fluoromethylcoumarin); DBF (Dibenzylfluorescein) and its respective fluorescein metabolite; MFC (7-Methoxy-4-trifluoromethylcoumarin) which forms the metabolite HFC (7-Hydroxytrifluoromethylcoumarin); BFC (7-Benzyloxy-Trifluoromethylcoumarin) and its metabolite HFC; and BzRes (benzyloxyresorufin) to form resofurine. The detection of the metabolite was done with a fluorimetric method: analytical technique to identify and characterize the amount of substance by excitation using a beam of ultraviolet light and measurement of the emitted fluorescence. For detection, a 96-well plate was used. Each sample was tested in two wells (n=2) as standard condition. At least 04 wells were separated for vehicle (control). Compounds were tested at a concentration […], standard for this assay. They were preincubated with a NADPH generator system in a phosphate buffer (pH 7.4) for 5 minutes at 37° C. The reaction was started by adding the specific CYP enzymes, substrate and bovine serum albumin (BSA<0.4 mg/ml). Incubations were performed between 20-50 minutes at 37° C. according to the specific parameter of each fluorogenic substrate, for the evaluated component. Fluorescence at each well was detected before and after the incubation period.
# CYP2C19 = CYP2C19 (Homo sapiens (Human), UniProt P33261); assay: CYP inhibition, fluorogenic substrate; format: in vitro ADME; set-up: dose or concentration left out as unconfirmed; conditions: recombinant CYP2C19, pH 7.4
# Description: as §2
# CYP2C8 = CYP2C8 (Homo sapiens (Human), UniProt P10632); assay: CYP inhibition, fluorogenic substrate; format: in vitro ADME; set-up: dose or concentration left out as unconfirmed; conditions: recombinant CYP2C8, pH 7.4
# Description: as §2
# CYP2C9 = CYP2C9 (Homo sapiens (Human), UniProt P11712); assay: CYP inhibition, fluorogenic substrate; format: in vitro ADME; set-up: dose or concentration left out as unconfirmed; conditions: recombinant CYP2C9, pH 7.4
# Description: as §2
# CYP2D6 = CYP2D6 (Homo sapiens (Human), UniProt P10635); assay: CYP inhibition, fluorogenic substrate; format: in vitro ADME; set-up: dose or concentration left out as unconfirmed; conditions: recombinant CYP2D6, pH 7.4
# Description: as §2
# CYP1A2 = CYP1A2 (Homo sapiens (Human), UniProt P05177); assay: CYP inhibition, fluorogenic substrate; format: in vitro ADME; set-up: inhibition: dose or concentration left out as unconfirmed; conditions: human, recombinant CYP1A2, pH 7.4
# Description: as §2
# [5] = Pharmacokinetics (PK) in rat, I.V. and oral; format: in vivo, Wistar-Han rats; conditions: oral 10 mg/kg; for AUC(0-t): Wistar-Han, plasma
# Experimental: […] The study lasted for 2 weeks (including acclimation time and study), in which the route of administration was made by injection into the caudal vein and oral gavage. The treatment was carried out in a single dose: I.V. group with dose of 1 mg/kg and Oral group with dose of 10 mg/kg. […] Clinical observations were made twice a day (morning and afternoon) in the pre-dose at the 08 time points defined in the protocol. Blood collection was performed after euthanasia in the pre-dose animals at 08 defined time points and at 24 hours post-dose. The pharmacokinetic analysis parameters detected for Group IV were: half-life (t½), drug concentration at time zero (C0), last measurable plasma concentration (AUClast), area under the plasma concentration curve extrapolation percentage (AUC % ext), area under the plasma concentration curve extrapolation to infinity (AUCinf), volume of distribution (Vz), steady state volume of distribution (Vss), clearance (CL) and mean residence time (MRT). The parameters evaluated for the Oral group were: bioavailability (F %), maximum concentration reached (Cmax), time to reach maximum plasma concentration (Tmax), last measurable plasma concentration (AUClast), area under the plasma concentration curve extrapolation percentage (AUC % ext), area under the plasma concentration curve extrapolation to infinity (AUCinf), area under the plasma concentration curve extrapolation to infinity versus dose (AUCinf/Dose), half-Life (t½), and mean residence time (MRT).
# melatonin receptors = conditions: Depreux et al. 1994; cited from earlier work
# [6] = oral, estimated, from literature; cited from earlier work
# [7] = conjugate acid, J. Org. Chem. 1961; cited from earlier work
# Chain of CYP2C19 (P33261 whole entry): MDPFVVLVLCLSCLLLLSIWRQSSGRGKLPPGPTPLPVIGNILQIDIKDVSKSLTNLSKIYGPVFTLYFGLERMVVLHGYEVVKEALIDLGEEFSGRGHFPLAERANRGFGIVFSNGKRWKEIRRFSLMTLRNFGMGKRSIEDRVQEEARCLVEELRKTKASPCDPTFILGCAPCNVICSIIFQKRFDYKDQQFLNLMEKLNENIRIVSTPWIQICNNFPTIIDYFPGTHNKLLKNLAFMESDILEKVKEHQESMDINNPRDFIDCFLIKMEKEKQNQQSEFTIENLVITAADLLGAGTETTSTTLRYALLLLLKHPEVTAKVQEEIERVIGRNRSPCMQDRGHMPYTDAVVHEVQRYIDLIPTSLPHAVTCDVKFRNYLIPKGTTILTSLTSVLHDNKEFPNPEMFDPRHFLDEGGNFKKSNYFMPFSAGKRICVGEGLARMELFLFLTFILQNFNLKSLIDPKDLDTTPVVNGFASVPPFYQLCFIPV
# Chain of CYP2B6 (P20813 whole entry): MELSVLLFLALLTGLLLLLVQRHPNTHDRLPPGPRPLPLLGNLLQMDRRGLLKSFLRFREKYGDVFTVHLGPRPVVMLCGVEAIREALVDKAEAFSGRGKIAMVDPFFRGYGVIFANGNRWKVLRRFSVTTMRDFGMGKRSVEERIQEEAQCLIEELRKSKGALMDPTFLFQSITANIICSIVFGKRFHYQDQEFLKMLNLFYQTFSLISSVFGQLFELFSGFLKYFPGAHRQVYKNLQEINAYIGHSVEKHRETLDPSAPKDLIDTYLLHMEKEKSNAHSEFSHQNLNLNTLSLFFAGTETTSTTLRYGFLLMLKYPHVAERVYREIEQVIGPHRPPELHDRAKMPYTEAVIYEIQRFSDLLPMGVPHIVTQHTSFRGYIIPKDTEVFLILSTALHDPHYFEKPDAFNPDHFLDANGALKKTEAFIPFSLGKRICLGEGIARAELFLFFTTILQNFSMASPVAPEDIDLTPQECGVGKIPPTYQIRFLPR
# Chain of CYP2C9 (P11712 whole entry): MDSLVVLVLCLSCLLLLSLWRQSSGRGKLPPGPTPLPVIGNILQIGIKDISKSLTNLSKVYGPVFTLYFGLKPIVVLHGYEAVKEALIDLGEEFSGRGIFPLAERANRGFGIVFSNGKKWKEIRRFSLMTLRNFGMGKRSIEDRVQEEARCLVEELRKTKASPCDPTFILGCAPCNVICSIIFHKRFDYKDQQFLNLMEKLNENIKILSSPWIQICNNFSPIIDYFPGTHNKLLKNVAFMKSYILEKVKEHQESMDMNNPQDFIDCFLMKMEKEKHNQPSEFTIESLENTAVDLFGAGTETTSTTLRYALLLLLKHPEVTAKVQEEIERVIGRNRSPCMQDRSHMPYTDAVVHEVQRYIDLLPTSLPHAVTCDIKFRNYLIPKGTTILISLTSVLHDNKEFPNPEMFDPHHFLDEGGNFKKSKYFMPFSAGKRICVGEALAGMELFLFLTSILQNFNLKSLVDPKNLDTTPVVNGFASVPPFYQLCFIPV
# Chain of CYP2C8 (P10632 whole entry): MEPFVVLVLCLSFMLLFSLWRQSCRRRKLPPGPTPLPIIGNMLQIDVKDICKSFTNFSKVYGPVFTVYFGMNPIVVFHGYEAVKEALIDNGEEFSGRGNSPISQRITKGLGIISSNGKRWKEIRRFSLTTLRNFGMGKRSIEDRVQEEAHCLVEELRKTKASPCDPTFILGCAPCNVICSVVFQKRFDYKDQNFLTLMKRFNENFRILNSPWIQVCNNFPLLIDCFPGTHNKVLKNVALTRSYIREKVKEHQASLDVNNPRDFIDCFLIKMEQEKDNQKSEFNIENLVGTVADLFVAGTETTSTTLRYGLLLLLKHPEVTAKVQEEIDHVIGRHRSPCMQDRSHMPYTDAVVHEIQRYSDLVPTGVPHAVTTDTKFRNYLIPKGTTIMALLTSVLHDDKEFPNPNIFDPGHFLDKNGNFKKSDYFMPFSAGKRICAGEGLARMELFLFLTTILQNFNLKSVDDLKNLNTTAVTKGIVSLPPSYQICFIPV
# Chain of CYP2D6 (P10635 whole entry): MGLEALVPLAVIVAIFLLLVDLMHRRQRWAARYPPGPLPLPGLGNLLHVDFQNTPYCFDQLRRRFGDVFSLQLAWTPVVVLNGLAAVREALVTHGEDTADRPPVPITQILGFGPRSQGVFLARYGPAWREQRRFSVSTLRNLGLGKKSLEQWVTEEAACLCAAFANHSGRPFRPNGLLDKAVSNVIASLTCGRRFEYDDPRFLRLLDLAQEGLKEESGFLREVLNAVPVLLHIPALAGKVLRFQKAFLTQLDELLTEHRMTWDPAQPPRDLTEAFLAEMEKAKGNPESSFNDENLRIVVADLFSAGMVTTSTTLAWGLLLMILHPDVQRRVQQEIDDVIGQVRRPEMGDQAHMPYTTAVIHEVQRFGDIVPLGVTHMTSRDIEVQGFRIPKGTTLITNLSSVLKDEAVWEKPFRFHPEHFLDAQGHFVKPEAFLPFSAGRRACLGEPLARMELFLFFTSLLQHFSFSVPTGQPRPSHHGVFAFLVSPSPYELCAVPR
# Chain of CYP1A2 (P05177 whole entry): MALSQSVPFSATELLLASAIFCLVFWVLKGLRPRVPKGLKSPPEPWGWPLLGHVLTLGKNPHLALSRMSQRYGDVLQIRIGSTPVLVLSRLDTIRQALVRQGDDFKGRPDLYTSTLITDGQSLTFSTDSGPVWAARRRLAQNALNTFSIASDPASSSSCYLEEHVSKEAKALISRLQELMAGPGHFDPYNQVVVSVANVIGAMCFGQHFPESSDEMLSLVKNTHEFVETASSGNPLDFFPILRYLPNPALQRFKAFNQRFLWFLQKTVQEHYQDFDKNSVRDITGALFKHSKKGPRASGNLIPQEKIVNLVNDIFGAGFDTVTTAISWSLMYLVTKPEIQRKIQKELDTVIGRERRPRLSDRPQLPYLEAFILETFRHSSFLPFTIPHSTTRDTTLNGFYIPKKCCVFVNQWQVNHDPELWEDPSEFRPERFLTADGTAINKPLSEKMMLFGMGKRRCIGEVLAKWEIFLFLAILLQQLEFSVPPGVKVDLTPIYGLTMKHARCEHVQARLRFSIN
SMILES,Papp A→B at 60 min [1],Papp B→A at 40 min [1],solubility at 24 h [2],"Intrinsic clearance half-life, Human (human hepatocytes)","Intrinsic clearance half-life, Rat Sprague-Dawley [3]","Intrinsic clearance half-life, Mouse CD-1 [4]",inhibition (CYP2B6),inhibition (CYP2C19),inhibition (CYP2C8),inhibition (CYP2C9),inhibition (CYP2D6),inhibition (CYP1A2),AUC(0-t) [5],AUClast [5],"affinity, times lower than melatonin affinity (melatonin receptors)",absolute bioavailability [6],pKa [7]
CCOc1nc2ccc(OC)cc2n1CCCNC(C)=O [IA2-120],32.1 ×10⁻⁶ cm/s,29.5 ×10⁻⁶ cm/s,200 µM,>2 h,0.883 h,>2 h,7.9%,6.4%,9.1%,26.7%,-0.3%,,,,,,
CCOc1nc2cc(Cl)c(OC)cc2n1CCNC(C)=O [IA2-121],58.2 ×10⁻⁶ cm/s,32.1 ×10⁻⁶ cm/s,200 µM,>2 h,0.867 h,>2 h,8.4%,33.8%,7%,23.7%,0.9%,,,,,,
COc1ccc2nc(OC)n(CCCNC(C)=O)c2c1 [IA2-140],27.3 ×10⁻⁶ cm/s,55.1 ×10⁻⁶ cm/s,197 µM,>2 h,>2 h,>2 h,0.4%,7.2%,-2.2%,2.6%,0.3%,-0.7%,2440 ng·h/mL,,,,
CCOc1nc2cc(Cl)c(OC)cc2n1CCCNC(C)=O [IA2-142],34 ×10⁻⁶ cm/s,57.8 ×10⁻⁶ cm/s,181 µM,>2 h,>2 h,>2 h,0.5%,27.7%,-4.7%,13%,6.9%,,,,,,
COc1cc2c(cc1Cl)nc(OC)n2CCNC(C)=O [IA2-143],21.3 ×10⁻⁶ cm/s,71.8 ×10⁻⁶ cm/s,197 µM,,1.8 h,,-1.1%,10%,-13%,-9.6%,0.8%,1.4%,4050 ng·h/mL,4049 ng·h/mL,,,
COc1ccc2ncn(CCNC(C)=O)c2c1 [N-[2-(6-methoxybenzimidazol-1-yl)-ethyl]acetamide],,,,,,,,,,,,,,,"approximately 3,200 times",,
CCC(=O)NCC[C@@H]1CCc2ccc3c(c21)CCO3 [ramelteon],,,,,,,,,,,,,,,,1.8%,
"c1ccc2[nH]cnc2c1 [unsubstituted benzimidazole, benzimidazole]",,,,,,,,,,,,,,,,,above 6
